Reference: ChEMBL document CHEMBL1201862, “PubChem BioAssay data set” (2004)
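Following 48 hours of exposure in 96-well plates, responses at five concentrations were used to interpolate endpoints linearly. GI50: concentration for 50% inhibition of growth.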 Calls of active or inactive are those of the source. No stated cut-off is given here; in the data, active = GI50 up to about 1.1 µM and inactive = higher. Square brackets hold non-standard residues; d marks the D form. Peptide text beside a SMILES is read from it. * marks the point of attachment. X26 = COC1=CC(=O)N(C(=O)[C@@H](O*)C(C)C)[C@H]1Cc1ccccc1; NMeL = CN[C@@H](CC(C)C)C(=O)O; Hexanoyl = CCCCCC(=O)*

Columns and labels:
Test in all cases: NCI-60 cell line screen, 48 h
IGROV-1 = system: IGROV-1
NCI-H23 = system: NCI-H23
SK-OV-3 = system: SK-OV-3
TK-10 = system: TK-10
MDA-MB-435 = system: MDA-MB-435
HL-60 = system: HL-60
OVCAR-5 = system: OVCAR-5
SF-295 = system: SF-295
RXF 393 = system: RXF 393
UACC-257 = system: UACC-257
OVCAR-3 = system: OVCAR-3
A549 = system: A549
Hs-578T = system: Hs-578T
HCT-116 = system: HCT-116
SF-268 = system: SF-268
CCRF-CEM = system: CCRF-CEM
T47D = system: T47D
MOLT-4 = system: MOLT-4
UACC-62 = system: UACC-62
SK-MEL-28 = system: SK-MEL-28
HT-29 = system: HT-29
NCI/ADR-RES = system: NCI/ADR-RES
SNB-75 = system: SNB-75
MDA-N = system: MDA-N
PC-3 = system: PC-3
U-251 = system: U-251
M14 = system: M14
786-0 = system: 786-0
EKVX = system: EKVX
NCI-H226 = system: NCI-H226
HCC 2998 = system: HCC 2998
OVCAR-8 = system: OVCAR-8
A498 = system: A498
ACHN = system: ACHN
DU-145 = system: DU-145
COLO 205 = system: COLO 205
BT-549 = system: BT-549
MDA-MB-231 = system: MDA-MB-231
SW-620 = system: SW-620
SN12C = system: SN12C
HOP-62 = system: HOP-62
SK-MEL-2 = system: SK-MEL-2
HOP-92 = system: HOP-92
Malme-3M = system: Malme-3M
LOX IMVI = system: LOX IMVI
CAKI-1 = system: CAKI-1
SF-539 = system: SF-539
NCI-H460 = system: NCI-H460
NCI-H522 = system: NCI-H522
OVCAR-4 = system: OVCAR-4
K562 = system: K562
MCF7 = system: MCF7
KM12 = system: KM12
HCT-15 = system: HCT-15
RPMI-8226 = system: RPMI-8226

Measured: GI50

CCCCCC(=O)N[C@H](C(=O)N[C@H](C(=O)N(C)[C@@H](CC(C)C)C(=O)N1CCC[C@H]1C(=O)N1CCC[C@H]1C(=O)O[C@H](C(=O)N1C(=O)C=C(OC)[C@@H]1Cc1ccccc1)C(C)C)C(C)C)C(C)C (Hexanoyl-VV[NMeL]PP-X26)
> 43.4 µM: HCT-15
inactive: IGROV-1 > 44.2 µM | NCI-H23 21.2 µM | SK-OV-3 > 100 µM | TK-10 > 100 µM | MDA-MB-435 47.9 µM | HL-60 1.46 µM | OVCAR-5 > 100 µM | SF-295 > 100 µM | RXF 393 10.1 µM | UACC-257 45.3 µM | OVCAR-3 > 100 µM | A549 18.1 µM | Hs-578T > 88.3 µM | HCT-116 54.7 µM | SF-268 > 41.9 µM | CCRF-CEM 42.9 µM | T47D 70.8 µM | MOLT-4 1.9 µM | UACC-62 > 100 µM | SK-MEL-28 > 100 µM | HT-29 > 100 µM | NCI/ADR-RES > 100 µM | SNB-75 19.5 µM | MDA-N 28.3 µM | PC-3 27.2 µM | U-251 > 91.6 µM | M14 > 33.3 µM | 786-0 > 91 µM | EKVX > 100 µM | NCI-H226 > 100 µM | HCC 2998 > 74.3 µM | OVCAR-8 > 100 µM | A498 51.5 µM | ACHN > 100 µM | DU-145 > 43.8 µM | COLO 205 32.5 µM | BT-549 83.4 µM | MDA-MB-231 > 64.9 µM | SW-620 > 100 µM | SN12C 35.6 µM | HOP-62 > 100 µM | SK-MEL-2 > 100 µM | HOP-92 36.1 µM | Malme-3M > 20.5 µM | LOX IMVI > 100 µM | CAKI-1 74.6 µM | SF-539 > 59.2 µM | NCI-H460 > 100 µM | NCI-H522 > 100 µM | OVCAR-4 > 76.9 µM | K562 10.3 µM | MCF7 25.9 µM | KM12 > 74.3 µM | RPMI-8226 2.74 µM
